Like-named read-outs stand apart in the source and are kept apart here.
Legend:
[1] = Metabolite profiling in human plasma, urine and feces (mass balance study, [14C] cabozantinib); format: in vivo; conditions: for Presence in pooled fecal sample, 0-72 hours post dose / Presence in pooled fecal sample, 144-192 hours post dose: human feces; for Peak on plasma radio-chromatograms: human plasma, one subject, single 175 mg oral dose of cabozantinib (L-malate salt) with [14C] cabozantinib
Experimental: The objective of this study was to profile and identify metabolites of cabozantinib in human plasma, urine, and feces.
The plasma, urine, and fecal samples were collected from the 8 subjects for the metabolite profiling.
All samples were shipped to QPS LLC (Newark, Del.) and stored at −70° C. HPLC/tandem MS coupled with a radio flow-through detector (RFD) was used for metabolite profiling and identification for samples with sufficient levels of radioactivity.
HPLC fraction collection followed by counting with TopCount NXT™ was used for radioquantitation of plasma samples with sufficient levels of radioactivity. […] HPLC Method 1 was used for the analysis of pooled urine and fecal samples and individual plasma samples from different time points. […] HPLC Method 3 was used for pooled plasma samples.
For the investigation of co-eluting metabolites, nonradiolabeled plasma samples of six subjects were pooled, processed, and analyzed for pre-dose, 1-7, 8-96, and 120-336 hours post-dose. […] [^14C]
Radiolabeled and non-radiolabeled plasma samples were extracted employing the same method, using 1.0-2 mL plasma samples, depending on the volume available and radioactivity level of the samples. The supernatants were evaporated to dryness under a stream of nitrogen in an ambient water bath, and the residues were reconstituted in 0.35-0.5 mL of MeOH:ACN:water (10:20:70, v/v/v). The reconstituted samples were centrifuged at 15,000 rpm for 10 minutes. Aliquots of the supernatants were injected onto the HPLC system for analysis.
The radioactivity in pooled urine and reconstituted solution was counted using LSC, and the reconstitution recovery calculated. […] Each pooled urine sample was lyophilized, the residue was reconstituted in water:ACN:FA (80:20:0.1, v/v/v), and the reconstituted sample was centrifuged at 15,000 rpm for 10 min before analysis.
The supernatants were dried under a nitrogen stream, and the residues were reconstituted in water:ACN:FA (80:20:0.1, v/v/v). The reconstituted samples were centrifuged at 15,000 rpm for 10 min before analysis.
The system for metabolite profiling and identification (HPLC/MS/RFD) consisted of a HTC PAL autosampler, a Surveyor HPLC pump, a LTQ linear ion trap mass spectrometer, and a β-RAM Model 3 RFD. The data obtained by mass spectrometry and RFD were processed by Xcalibur and Laura Lite 3 software, respectively. The HPLC eluent was split between the RFD and mass spectrometer with a ratio of 3 to 1. The following are the summary of the conditions for HPLC, mass spectrometer, and RFD.
For plasma samples, percent of total radioactivity in the sample for each peak at each time point was calculated and converted to ng/mL.

[2] = target: T1, Flt-4 (Homo sapiens, UniProt P35916); test: Kinase activity (EMD Millipore Kinase Profiler), Flt-4; format: biochemical; conditions: class symbol; read-out: Flt-4 Std (IC50)
T1 construct: purchased EMD Millipore (Kinase Profiler service)
T1 sequence (P35916 25-1363): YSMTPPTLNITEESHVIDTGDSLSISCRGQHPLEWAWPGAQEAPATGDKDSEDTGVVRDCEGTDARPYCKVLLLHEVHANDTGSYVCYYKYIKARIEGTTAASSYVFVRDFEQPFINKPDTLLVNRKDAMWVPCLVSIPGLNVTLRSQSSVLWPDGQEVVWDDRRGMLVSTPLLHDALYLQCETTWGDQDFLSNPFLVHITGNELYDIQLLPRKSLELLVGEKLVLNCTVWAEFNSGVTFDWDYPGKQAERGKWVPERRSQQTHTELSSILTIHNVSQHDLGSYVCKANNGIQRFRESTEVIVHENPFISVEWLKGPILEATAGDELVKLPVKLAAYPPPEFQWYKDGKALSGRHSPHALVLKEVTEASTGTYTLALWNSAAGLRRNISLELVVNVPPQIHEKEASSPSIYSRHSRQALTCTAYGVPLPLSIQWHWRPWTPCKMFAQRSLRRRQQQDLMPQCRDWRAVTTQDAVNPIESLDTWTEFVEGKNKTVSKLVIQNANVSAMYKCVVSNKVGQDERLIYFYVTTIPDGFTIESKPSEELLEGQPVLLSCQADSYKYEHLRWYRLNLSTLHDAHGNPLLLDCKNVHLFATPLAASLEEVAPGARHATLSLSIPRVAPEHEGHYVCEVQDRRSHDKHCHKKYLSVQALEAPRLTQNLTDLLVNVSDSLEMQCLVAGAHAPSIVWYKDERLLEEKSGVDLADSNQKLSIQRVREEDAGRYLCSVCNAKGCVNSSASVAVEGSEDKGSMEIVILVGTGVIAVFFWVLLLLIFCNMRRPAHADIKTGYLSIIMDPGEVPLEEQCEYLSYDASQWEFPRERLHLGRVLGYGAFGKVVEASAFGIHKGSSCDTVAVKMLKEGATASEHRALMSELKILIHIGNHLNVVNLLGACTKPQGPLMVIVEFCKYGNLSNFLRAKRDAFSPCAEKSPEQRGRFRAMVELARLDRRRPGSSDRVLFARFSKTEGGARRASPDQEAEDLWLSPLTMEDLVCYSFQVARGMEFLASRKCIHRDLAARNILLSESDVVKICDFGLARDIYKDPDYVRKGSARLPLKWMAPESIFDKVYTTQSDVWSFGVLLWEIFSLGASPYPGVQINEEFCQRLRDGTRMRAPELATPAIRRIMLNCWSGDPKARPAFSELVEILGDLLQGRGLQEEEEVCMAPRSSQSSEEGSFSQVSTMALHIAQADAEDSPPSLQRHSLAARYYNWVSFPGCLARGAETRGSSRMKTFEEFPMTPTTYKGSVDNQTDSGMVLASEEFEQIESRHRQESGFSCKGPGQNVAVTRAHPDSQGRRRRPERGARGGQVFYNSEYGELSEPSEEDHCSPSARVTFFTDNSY

[3] = PK parameters of cabozantinib and measured metabolites in human subjects; format: in vivo; conditions: for AUC(0-inf) / Cmax / Tmax / AUC(0-t) / half-life: human, plasma, oral, 140 mg/day; for half-life: read-out: t1/2, apparent terminal elimination half-life (converted)
[4] = target: T2, KDR (Homo sapiens, UniProt P35968); test: Kinase activity (EMD Millipore Kinase Profiler), KDR; format: biochemical; conditions: class symbol; read-out: KDR Std (IC50)
T2 construct: purchased EMD Millipore (Kinase Profiler service)
T2 sequence (P35968 20-1356): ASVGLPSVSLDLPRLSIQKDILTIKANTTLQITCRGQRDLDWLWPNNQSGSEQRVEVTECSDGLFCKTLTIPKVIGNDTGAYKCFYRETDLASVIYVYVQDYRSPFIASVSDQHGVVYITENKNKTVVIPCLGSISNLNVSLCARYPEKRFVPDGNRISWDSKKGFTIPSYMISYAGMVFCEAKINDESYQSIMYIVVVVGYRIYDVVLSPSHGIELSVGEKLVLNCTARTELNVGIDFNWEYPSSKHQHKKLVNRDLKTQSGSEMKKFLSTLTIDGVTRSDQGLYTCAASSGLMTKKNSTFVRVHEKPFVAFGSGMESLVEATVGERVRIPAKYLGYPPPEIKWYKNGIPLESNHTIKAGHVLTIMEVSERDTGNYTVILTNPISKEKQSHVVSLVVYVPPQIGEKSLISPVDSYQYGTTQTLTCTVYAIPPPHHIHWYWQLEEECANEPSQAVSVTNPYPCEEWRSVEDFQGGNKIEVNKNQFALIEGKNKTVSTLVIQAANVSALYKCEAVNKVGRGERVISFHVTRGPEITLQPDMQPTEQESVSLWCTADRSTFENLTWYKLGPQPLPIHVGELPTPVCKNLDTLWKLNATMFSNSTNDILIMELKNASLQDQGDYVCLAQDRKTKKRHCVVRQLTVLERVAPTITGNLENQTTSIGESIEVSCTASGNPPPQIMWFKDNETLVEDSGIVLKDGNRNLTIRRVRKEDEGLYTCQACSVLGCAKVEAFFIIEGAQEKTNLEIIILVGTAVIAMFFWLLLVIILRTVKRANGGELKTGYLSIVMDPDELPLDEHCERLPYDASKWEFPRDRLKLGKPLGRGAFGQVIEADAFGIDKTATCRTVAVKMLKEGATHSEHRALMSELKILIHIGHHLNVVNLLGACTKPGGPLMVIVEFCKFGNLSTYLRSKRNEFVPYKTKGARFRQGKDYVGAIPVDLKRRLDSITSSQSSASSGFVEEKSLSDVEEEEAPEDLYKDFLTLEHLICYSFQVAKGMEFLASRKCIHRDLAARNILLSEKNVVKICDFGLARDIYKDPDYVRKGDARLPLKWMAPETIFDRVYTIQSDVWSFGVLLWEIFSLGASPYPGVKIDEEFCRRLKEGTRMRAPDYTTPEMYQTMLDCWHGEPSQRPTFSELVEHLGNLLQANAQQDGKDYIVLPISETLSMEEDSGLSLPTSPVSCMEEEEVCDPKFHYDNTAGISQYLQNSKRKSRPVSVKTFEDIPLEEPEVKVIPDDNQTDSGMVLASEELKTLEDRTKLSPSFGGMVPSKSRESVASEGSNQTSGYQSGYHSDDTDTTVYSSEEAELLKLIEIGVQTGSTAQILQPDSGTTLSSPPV

[5] = target: T3, Flt-3 (Homo sapiens, UniProt P36888); test: Kinase activity (EMD Millipore Kinase Profiler), Flt-3; format: biochemical; conditions: class symbol; read-out: Flt-3 Std (IC50)
T3 construct: purchased EMD Millipore (Kinase Profiler service)
T3 sequence (P36888 27-993): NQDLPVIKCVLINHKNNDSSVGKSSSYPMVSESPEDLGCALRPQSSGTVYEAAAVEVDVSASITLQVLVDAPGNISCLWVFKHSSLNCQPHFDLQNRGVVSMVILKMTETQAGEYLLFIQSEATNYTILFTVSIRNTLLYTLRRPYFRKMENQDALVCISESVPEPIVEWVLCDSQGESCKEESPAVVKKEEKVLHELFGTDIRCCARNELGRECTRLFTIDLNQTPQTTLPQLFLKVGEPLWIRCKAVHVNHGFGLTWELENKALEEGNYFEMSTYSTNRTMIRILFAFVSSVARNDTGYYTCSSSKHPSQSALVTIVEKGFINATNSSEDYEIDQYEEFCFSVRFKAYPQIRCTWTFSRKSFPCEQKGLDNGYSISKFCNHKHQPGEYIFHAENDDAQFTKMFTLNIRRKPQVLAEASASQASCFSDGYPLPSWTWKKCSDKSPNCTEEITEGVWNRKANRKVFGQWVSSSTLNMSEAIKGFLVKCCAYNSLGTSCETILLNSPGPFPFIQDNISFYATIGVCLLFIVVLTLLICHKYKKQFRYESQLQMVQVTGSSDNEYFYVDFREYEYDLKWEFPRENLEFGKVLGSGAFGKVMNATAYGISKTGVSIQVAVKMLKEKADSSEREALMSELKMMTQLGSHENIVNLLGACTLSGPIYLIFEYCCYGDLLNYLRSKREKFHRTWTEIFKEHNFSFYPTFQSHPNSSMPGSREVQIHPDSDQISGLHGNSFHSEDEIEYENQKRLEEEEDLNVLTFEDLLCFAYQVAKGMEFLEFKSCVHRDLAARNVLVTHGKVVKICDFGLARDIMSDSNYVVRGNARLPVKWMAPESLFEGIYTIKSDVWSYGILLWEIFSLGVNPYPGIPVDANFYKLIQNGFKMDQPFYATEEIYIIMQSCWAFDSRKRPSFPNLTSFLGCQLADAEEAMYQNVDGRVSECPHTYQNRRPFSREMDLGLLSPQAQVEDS

[6] = target: T4, c-Met (Homo sapiens, UniProt P08581); test: Kinase activity (EMD Millipore Kinase Profiler), c-Met; format: biochemical; conditions: class symbol; read-out: c-Met Std (IC50)
T4 construct: purchased EMD Millipore (Kinase Profiler service)
T4 sequence (P08581 25-1390): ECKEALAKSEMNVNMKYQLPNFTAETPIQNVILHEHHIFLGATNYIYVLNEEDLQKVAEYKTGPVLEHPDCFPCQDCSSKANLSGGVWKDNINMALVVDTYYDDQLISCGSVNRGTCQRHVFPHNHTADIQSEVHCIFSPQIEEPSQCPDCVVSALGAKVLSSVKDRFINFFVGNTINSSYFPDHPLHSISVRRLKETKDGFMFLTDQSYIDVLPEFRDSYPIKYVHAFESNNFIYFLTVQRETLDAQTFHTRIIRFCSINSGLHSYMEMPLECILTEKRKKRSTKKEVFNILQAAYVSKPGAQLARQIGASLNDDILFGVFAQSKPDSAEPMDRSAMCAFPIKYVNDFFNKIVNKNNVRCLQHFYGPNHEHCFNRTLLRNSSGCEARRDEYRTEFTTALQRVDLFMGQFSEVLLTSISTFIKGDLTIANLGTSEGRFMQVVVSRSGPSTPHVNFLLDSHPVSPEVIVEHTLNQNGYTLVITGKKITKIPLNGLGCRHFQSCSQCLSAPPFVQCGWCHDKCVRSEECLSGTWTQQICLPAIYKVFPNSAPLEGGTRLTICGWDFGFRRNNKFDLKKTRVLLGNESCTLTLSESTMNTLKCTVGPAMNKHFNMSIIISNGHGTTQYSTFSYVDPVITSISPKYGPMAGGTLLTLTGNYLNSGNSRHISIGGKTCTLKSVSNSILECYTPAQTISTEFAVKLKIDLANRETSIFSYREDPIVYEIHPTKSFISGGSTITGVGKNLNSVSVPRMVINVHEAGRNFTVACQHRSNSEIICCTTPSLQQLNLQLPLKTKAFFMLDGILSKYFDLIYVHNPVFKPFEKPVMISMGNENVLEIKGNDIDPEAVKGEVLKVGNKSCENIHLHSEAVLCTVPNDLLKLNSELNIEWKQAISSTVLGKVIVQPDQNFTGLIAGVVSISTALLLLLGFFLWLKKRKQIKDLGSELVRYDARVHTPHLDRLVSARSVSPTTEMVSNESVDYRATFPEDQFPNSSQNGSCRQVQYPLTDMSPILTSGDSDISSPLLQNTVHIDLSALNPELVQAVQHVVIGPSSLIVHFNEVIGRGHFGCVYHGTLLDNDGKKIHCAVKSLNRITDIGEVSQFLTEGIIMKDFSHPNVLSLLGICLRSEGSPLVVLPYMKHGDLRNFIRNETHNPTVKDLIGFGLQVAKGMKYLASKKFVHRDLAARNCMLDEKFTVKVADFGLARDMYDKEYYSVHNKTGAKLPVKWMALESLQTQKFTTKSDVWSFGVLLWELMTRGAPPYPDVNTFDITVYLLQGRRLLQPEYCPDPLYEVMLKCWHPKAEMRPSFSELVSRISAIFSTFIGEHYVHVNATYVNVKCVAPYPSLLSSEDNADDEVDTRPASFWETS

[7] = HPLC Method 1, single 175 mg oral dose
[8] = eight human subjects, cabozantinib 140 mg/day, time zero to 24 hours post dose, read-out: AUC0-24
[9] = eight human subjects, cabozantinib 140 mg/day, time zero to 72 hours post dose, read-out: AUC0-72
[10] = eight human subjects, cabozantinib 140 mg/day, time zero to last measurable concentration, read-out: AUC0-t
[11] = human urine, HPLC Method 1, single 175 mg oral dose

Q: What does the source list for `COc1cc2nccc(Oc3ccc(NC(=O)C4(C(=O)Nc5ccc(F)cc5)CC4)cc3)c2cc1OC` [Cabozantinib, N-(4-{[6,7-bis(methyloxy)quinolin-4-yl]oxy}phenyl)-N′-(4-fluorophenyl)cyclopropane-1,1-dicarboxamide, reference compound]?
A: Presence in pooled fecal sample, 0-72 hours post dose [1, 7]: observed; Peak on plasma radio-chromatograms [1]: major peaks; Presence in urine samples ([1]; human urine, all samples, single 175 mg oral dose): not observed; IC50 [2]: < 50 nM; kel, apparent terminal elimination rate constant ([3]; eight human subjects, cabozantinib 140 mg/day): 0.00712 ± 0.001 h⁻¹; AUC(0-inf) [3]: 68000 ± 6910 ng·h/mL; Cmax [3]: 1250 ng/mL; Tmax [3]: 1.49 h; AUC(0-t) [3, 8]: 14300 ± 2600 ng·h/mL; AUC(0-t) [3, 9]: 35000 ± 6770 ng·h/mL; AUC(0-t) [3, 10]: 67200 ± 6880 ng·h/mL

Q: Which results are given for `COc1cc2nccc(Oc3ccc(N)cc3)c2cc1O` [Compound 1]?
A: Presence in pooled urine sample, 0-72 hours post dose [1, 11]: observed; Presence in pooled urine sample, 144-192 hours post dose [1, 11]: observed; Presence in pooled urine sample, 288-336 hours post dose [1, 11]: detected

Q: What does the source list for `COc1cc2nccc(Oc3ccc(NC(=O)C4(C(=O)O)CC4)cc3)c2cc1OC` [Compound 7, 1-[4-(6,7-Dimethoxy-quinolin-4-yloxy)-phenylcarbamoyl]-cyclopropane carboxylic Acid]?
A: Presence in pooled fecal sample, 0-72 hours post dose [1, 7]: observed; Presence in pooled fecal sample, 144-192 hours post dose [1, 7]: observed; Peak on plasma radio-chromatograms [1]: one of the minor peaks; Presence in pooled urine sample, 0-72 hours post dose [1, 11]: observed; Presence in pooled urine sample, 144-192 hours post dose [1, 11]: observed

Q: Which results are given for `COc1cc2nccc(Oc3ccc(NC(=O)C4(C(=O)Nc5ccc(F)c(O)c5)CC4)cc3)c2cc1OC` [Compound 13]?
A: IC50 [4]: < 50 nM; IC50 [5]: < 50 nM; IC50 [6]: < 50 nM

Q: For `COc1cc2nccc(Oc3ccc(NC(=O)C4(C(=O)Nc5ccc(F)cc5O)CC4)cc3)c2cc1OC` [Compound 16], which IC50 [4] is on record?
A: The IC50 was under 50 nM.

Q: What about the “Presence in pooled fecal sample, 0-72 hours post dose” value [1, 7] of the same molecule?
A: The value was “observed”.

Q: What about the “Presence in pooled fecal sample, 144-192 hours post dose” value [1, 7] of the same molecule?
A: The value was “observed”.

Q: And the IC50 [5]?
A: Its IC50 is under 50 nM.

Q: And the IC50 [6]?
A: The IC50 was under 50 nM.

Q: What does the source list for `COc1cc2c(Oc3ccc(NC(=O)C4(C(=O)Nc5ccc(F)cc5)CC4)cc3)cc[n+]([O-])c2cc1OC` [Compound 19, Cabozantinib N-Oxide]?
A: Peak on plasma radio-chromatograms [1]: major peaks; Presence in pooled urine sample, 0-72 hours post dose [1, 11]: observed

Q: Which AUC(0-inf) [3] does the source give for `COc1cc2nccc(Oc3ccc(NC(=O)C4(C(=O)O)CC4)cc3)c2cc1OC` [drawing 45] here?
A: Its AUC(0-inf) is 6770 ng·h/mL.

Q: And the Cmax [3]?
A: Its Cmax is 52.9 ng/mL.

Q: And the Tmax [3]?
A: Its Tmax is 19 h.

Q: And the AUC(0-t) [3, 8]?
A: Its AUC(0-t) is 1080 ng·h/mL.

Q: And the AUC(0-t) [3, 9]?
A: The AUC(0-t) was 3120 ng·h/mL.

Q: What about the AUC(0-t) [3, 10] of the same molecule?
A: The AUC(0-t) was 6540 ng·h/mL.

Q: What about the half-life [3] of the same molecule?
A: The half-life was 91.8 h.

Q: For `COc1cc2c(Oc3ccc(NC(=O)C4(C(=O)Nc5ccc(F)cc5)CC4)cc3)cc[n+]([O-])c2cc1OC` [drawing 46], which AUC(0-inf) [3] is on record?
A: The AUC(0-inf) was 10300 ng·h/mL.

Q: And the Cmax [3]?
A: The Cmax was 118 ng/mL.

Q: What about the Tmax [3] of the same molecule?
A: The Tmax was 13.5 h.

Q: What about the AUC(0-t) [3, 8] of the same molecule?
A: The AUC(0-t) was 2030 ng·h/mL.

Q: What about the AUC(0-t) [3, 9] of the same molecule?
A: The AUC(0-t) was 5610 ng·h/mL.

Q: What about the AUC(0-t) [3, 10] of the same molecule?
A: The AUC(0-t) was 10100 ng·h/mL.

Q: And the half-life [3]?
A: The half-life was 89.2 h.

Q: Which AUC(0-inf) [3] does the source give for `COc1cc2nccc(Oc3ccc(NC(=O)C4(C(=O)Nc5ccc(F)cc5OS(=O)(=O)O)CC4)cc3)c2cc1OC` [drawing 47] here?
A: Its AUC(0-inf) is 29500 ng·h/mL.

Q: And the Cmax [3]?
A: Its Cmax is 236 ng/mL.

Q: What about the Tmax [3] of the same molecule?
A: Its Tmax is 24 h.

Q: And the AUC(0-t) [3, 8]?
A: Its AUC(0-t) is 3970 ng·h/mL.

Q: And the AUC(0-t) [3, 9]?
A: The AUC(0-t) was 12600 ng·h/mL.

Q: And the AUC(0-t) [3, 10]?
A: The AUC(0-t) was 28900 ng·h/mL.

Q: And the half-life [3]?
A: The half-life was 86 h.
